Read-outs that look alike come from different tables or passages of the source.
Tests used:
HSV-1 DNA pol [1] = target: T1, HSV-1 DNA pol (Human herpesvirus 1, UniProt P04292); assay: HSV DNA pol assay (high salt, 100 mM ammonium sulfate), 3H-TTP incorporation into nicked calf thymus DNA by cell extracts; format: biochemical; set-up: made in house; host or cells: Saccharomyces cerevisiae Y294 carrying pMH202 (strain Y-MH202), galactose-induced, crude cell lysate; conditions: HSV pol assay conditions
T1 sequence (P04292 whole entry): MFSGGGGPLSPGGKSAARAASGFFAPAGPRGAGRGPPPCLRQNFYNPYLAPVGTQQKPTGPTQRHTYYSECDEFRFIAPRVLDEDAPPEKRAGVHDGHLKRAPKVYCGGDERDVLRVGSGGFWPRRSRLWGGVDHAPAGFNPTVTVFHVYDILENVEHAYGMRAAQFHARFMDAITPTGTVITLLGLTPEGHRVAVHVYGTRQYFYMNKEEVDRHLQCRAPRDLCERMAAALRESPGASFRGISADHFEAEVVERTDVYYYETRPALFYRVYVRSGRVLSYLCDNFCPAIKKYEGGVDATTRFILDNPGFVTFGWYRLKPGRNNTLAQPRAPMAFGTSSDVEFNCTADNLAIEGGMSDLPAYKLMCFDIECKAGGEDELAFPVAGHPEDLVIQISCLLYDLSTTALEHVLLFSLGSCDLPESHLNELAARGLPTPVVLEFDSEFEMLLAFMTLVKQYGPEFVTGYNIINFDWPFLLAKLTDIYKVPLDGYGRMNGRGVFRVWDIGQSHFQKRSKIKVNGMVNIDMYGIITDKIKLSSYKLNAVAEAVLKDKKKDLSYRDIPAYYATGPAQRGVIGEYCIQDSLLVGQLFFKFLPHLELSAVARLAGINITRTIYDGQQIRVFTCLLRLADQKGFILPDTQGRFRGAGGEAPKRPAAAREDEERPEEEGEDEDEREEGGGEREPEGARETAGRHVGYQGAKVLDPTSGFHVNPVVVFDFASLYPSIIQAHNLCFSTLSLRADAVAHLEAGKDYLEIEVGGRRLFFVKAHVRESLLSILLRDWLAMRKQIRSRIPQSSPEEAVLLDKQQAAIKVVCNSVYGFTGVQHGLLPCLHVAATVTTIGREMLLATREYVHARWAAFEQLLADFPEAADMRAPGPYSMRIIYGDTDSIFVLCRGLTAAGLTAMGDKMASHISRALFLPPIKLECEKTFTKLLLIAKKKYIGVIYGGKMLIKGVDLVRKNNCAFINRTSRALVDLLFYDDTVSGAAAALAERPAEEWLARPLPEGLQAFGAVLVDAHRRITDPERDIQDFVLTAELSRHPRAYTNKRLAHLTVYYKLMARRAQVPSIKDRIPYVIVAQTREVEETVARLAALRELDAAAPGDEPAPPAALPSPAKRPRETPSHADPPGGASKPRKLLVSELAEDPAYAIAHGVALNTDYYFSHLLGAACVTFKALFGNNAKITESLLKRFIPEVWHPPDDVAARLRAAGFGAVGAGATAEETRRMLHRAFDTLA
Experimental: In order to determine whether HSV pol protein was expressed and whether HSV specific DNA polymerase activity could be detected in yeast cells containing pMH202, the following experiments were performed. This description represents only one example of how such a strain can be constructed. Other examples may include a different yeast host strain and/or a different transformation procedure. Yeast cells (Y 294) were transformed with pMH101 (control plasmid without the HSV pol gene) or pMH202 (expression plasmid with HSV pol gene) DNAs. Transformation of the yeast cells was accomplished using the method of J. D. Beggs (1978. Nature 275: 104 - 109). The transformants were selected for uracil prototrophy by growth on minimal media containing 182.2 g/L sorbitol; 20 g/L glucose; 6.7 g/L yeast nitrogen base (Difco) supplemented with 30µg/ml leucine, 20µg/ml histidine, 20µg/ml tryptophan and 2% glucose but lacking uracil. One colony of each type (designated Y-MH101 or Y-MH202, respectively) was selected at random for further analysis. 100 ml overnight cultures were grown from these two strains in minimal media (0.7% yeast nitrogen base [Difco]) containing the required amino acids as described above and 2% raffinose. […] The extent of lysis was monitored by microscopy. […]
(§1) The lysates were also analyzed for DNA polymerase enzyme activity. […]

HSV-1 DNA pol [2] = target: T1, HSV-1 DNA pol; assay: as above; format: biochemical; conditions: for high salt activity in the Y-MH202 yeast cell extracts (result in words): Y-MH202 extract, 23 µM ACVTP, 5.3 µM aphidicolin
Experimental: (§2) In order to determine whether HSV pol protein was expressed and whether HSV specific DNA polymerase activity could be detected in yeast cells containing pMH202, the following experiments were performed. This description represents only one example of how such a strain can be constructed. Other examples may include a different yeast host strain and/or a different transformation procedure. Yeast cells (Y 294) were transformed with pMH101 (control plasmid without the HSV pol gene) or pMH202 (expression plasmid with HSV pol gene) DNAs. Transformation of the yeast cells was accomplished using the method of J. D. Beggs (1978. Nature 275: 104 - 109). The transformants were selected for uracil prototrophy by growth on minimal media containing 182.2 g/L sorbitol; 20 g/L glucose; 6.7 g/L yeast nitrogen base (Difco) supplemented with 30µg/ml leucine, 20µg/ml histidine, 20µg/ml tryptophan and 2% glucose but lacking uracil. One colony of each type (designated Y-MH101 or Y-MH202, respectively) was selected at random for further analysis. 100 ml overnight cultures were grown from these two strains in minimal media (0.7% yeast nitrogen base [Difco]) containing the required amino acids as described above and 2% raffinose. The following day, cultures were divided in half, cells were pelleted, resuspended in 100 ml of fresh media containing either 2% raffinose or 2% galactose and again grown overnight. The following day, the four cultures were pelleted at 4°C. Cell lysates were prepared as described by Johnson et al. (1985 . Cell 43:369 - 377). This represents only one example of how such a lysate may be prepared. Cell pellets were resuspended in 1 ml 50 mM Tris-HCl, pH 8.0; 50mM NaCl, 1% dimethylsulfoxide; 10% glycerol; 5mM beta-mercaptoethanol; 10mM EDTA; 2mM benzamidine; and 1mM phenylmethylsulfonylfluoride (PMSF). Lysis was achieved by vortexing the cells 15 - 20 times for 1 minute in the presence of an equal volume of acid-washed glass beads. The extent of lysis was monitored by microscopy. The lysed extracts were transferred to 1.5 ml microfuge tubes and centrifuged for 10 minutes at 12,000 x g. Extracts were stored at -80°C in 15% glycerol until use. The final protein concentration of each of the extracts was between 5 - 6 mg/ml.
Infected cell extracts were prepared essentially as described by Karkas et al. (1986. J. Med. Chem. 29:842 - 848). HeLa S3 cells were infected with HSV-1 KOS at a multiplicity of infection of 10 plaque forming units per cell and harvested at 16 hours post infection. […]
as §1

yeast alpha DNA pol = yeast alpha DNA pol (Saccharomyces cerevisiae, UniProt P13382); assay: Yeast DNA polymerase (alpha pol) assay (low salt), 3H-TTP incorporation by yeast cell extracts; format: biochemical, Saccharomyces cerevesiae; conditions: for low salt DNA pol activity, sensitivity to drug (result in words): all of the extracts tested (also HSV-infected HeLa extract), at the concentration tested; for inhibition at 5.3 µM: aphidicolin 5.3 µM
yeast alpha DNA pol, sequence (P13382 2-1468): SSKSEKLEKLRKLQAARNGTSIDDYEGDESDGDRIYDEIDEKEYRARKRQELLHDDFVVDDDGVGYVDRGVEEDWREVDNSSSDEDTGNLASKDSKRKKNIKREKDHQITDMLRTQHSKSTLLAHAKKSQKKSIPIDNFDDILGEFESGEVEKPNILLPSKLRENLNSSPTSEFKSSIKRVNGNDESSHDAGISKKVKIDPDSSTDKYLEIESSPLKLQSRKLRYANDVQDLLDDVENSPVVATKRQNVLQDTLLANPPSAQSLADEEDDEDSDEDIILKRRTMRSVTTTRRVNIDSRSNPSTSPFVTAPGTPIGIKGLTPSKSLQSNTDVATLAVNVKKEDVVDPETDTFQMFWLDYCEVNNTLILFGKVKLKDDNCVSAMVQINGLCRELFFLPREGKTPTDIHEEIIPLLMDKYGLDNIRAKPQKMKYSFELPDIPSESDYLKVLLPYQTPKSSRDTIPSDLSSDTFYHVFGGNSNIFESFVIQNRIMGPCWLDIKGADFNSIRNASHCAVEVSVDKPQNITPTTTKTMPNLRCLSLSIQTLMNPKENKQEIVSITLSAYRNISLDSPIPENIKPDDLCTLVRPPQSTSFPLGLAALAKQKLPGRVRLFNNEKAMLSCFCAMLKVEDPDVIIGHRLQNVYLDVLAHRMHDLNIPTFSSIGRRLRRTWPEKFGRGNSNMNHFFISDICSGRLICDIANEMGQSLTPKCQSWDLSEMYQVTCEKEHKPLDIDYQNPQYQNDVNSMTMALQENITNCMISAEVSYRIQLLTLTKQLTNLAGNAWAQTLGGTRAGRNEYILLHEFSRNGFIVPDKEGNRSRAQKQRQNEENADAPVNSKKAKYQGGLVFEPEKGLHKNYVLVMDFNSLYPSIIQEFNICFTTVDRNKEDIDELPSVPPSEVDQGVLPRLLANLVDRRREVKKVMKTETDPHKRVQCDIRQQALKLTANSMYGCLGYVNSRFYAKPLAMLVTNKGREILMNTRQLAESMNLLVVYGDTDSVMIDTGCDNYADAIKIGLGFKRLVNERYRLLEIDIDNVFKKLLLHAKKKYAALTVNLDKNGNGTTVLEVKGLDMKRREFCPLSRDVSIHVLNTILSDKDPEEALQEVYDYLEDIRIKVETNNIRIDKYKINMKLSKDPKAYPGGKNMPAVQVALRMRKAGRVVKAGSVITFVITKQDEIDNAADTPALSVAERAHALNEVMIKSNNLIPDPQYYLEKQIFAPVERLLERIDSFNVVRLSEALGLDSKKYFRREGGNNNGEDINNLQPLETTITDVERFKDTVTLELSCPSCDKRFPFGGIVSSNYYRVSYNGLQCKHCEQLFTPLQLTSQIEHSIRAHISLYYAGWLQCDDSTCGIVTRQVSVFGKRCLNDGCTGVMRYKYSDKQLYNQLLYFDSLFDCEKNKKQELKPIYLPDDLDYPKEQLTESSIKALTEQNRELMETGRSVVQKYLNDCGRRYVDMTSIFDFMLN
Experimental: as §2
The lysates were also analyzed for DNA polymerase enzyme activity. Each of the four yeast cell extracts was assayed for DNA pol activity under two sets of conditions. The yeast DNA pol assay conditions were designed to detect the alpha polymerase which should be present in all lysates. The HSV DNA pol assay conditions were chosen to detect HSV specific DNA pol activity which is enhanced by high salt (100mM ammonium sulfate). In contrast, the yeast alpha DNA pol is inhibited under these salt conditions. The assay for yeast DNA polymerase was performed essentially as described in Celniker and Campbell (1982. Cell 31:201 - 213), but without addition of ribonucleotide triphosphates. Reaction mixtures contained 5µl of enzyme extract (25 - 30 µg of protein) in 10mM Tris-HCl, pH 7.5; 10 mM MgCl₂; 10 mM (NH₄)₂SO₄; 0.1 mM DTT; 100 µM each of dATP, dCTP, dGTP; 100 µM ³H-TTP (10 cpm/pmol); 40 µg/ml nicked calf thymus DNA; and 2 mM spermidine in a final volume of 50 µl. The assay for the HSV-1 DNA pol was performed as follows. […] The filters were washed thoroughly, twice using 1N HCl and once using 95% ethanol; air dried and quantitated by scintillation counting using a LKB 1214 Rackbeta counter at 63% efficiency. […]

Row | Structure (SMILES) | inhibition at 5.3 µM (HSV-1 DNA pol [1]; read-out: % Inhibition by Drug Aphidicolin, HSV-infected HeLa cells extract, aphidicolin 5.3 µM) [%] | high salt activity in the Y-MH202 yeast cell extracts (result in words) (HSV-1 DNA pol [2]) | inhibition at 5.3 µM (HSV-1 DNA pol [2]; read-out: % Inhibition by Drug Aphidicolin, Yeast Expressor (Y-MH202, galactose) extract, HSV pol assay conditions, aphidicolin 5.3 µM) [%] | low salt DNA pol activity, sensitivity to drug (result in words) (yeast alpha DNA pol) | inhibition at 5.3 µM (yeast alpha DNA pol; read-out: % Inhibition by Drug Aphidicolin, Yeast Control (Y-MH101, galactose) extract, alpha pol assay conditions) [%] | inhibition at 5.3 µM (yeast alpha DNA pol; read-out: % Inhibition by Drug Aphidicolin, Yeast Expressor (Y-MH202, galactose) extract, alpha pol assay conditions) [%] | inhibition at 23 µM (HSV-1 DNA pol [1]; HSV-infected HeLa cells extract, ACVTP 23 µM, read-out: % Inhibition by Drug ACVTP) [%] | inhibition at 23 µM (HSV-1 DNA pol [2]; Yeast Expressor (Y-MH202, galactose) extract, HSV pol assay conditions, ACVTP 23 µM, read-out: % Inhibition by Drug ACVTP) [%] | inhibition at 23 µM (yeast alpha DNA pol; Yeast Control (Y-MH101, galactose) extract, alpha pol assay conditions, ACVTP 23 µM, 0% means relative activity ≥1.0, read-out: % Inhibition by Drug ACVTP) [%]
1 | C[C@@]1(CO)[C@H](O)CC[C@@]2(C)[C@H]1CC[C@H]1C[C@@H]3C[C@@]12CC[C@]3(O)CO [Aphidicolin, aphidicolin] | 90 | inhibited | 94 | sensitive | 88 | 80 |  |  | 
2 | Nc1nc2c(ncn2COCCOP(=O)(O)OP(=O)(O)OP(=O)(O)O)c(=O)[nH]1 [ACVTP, acyclovir triphosphate] |  | inhibited |  | not sensitive |  |  | 89 | 93 | 0
